Measurements taken from ChEMBL document CHEMBL1201862, “PubChem BioAssay data set” (2004).
Active and inactive are the calls of the source.

Key:
[1] = Luminescence Cell-Based Dose Confirmation HTS to Identify Activators of 5'UTR Stem-Loop Driven Alpha-Synuclein mRNA Translation in H4 Neuroglioblastoma Cells. [Related pubchem assays: 1829 (Project Summary), 1814 (Primary HTS)]; format: functional
[2] = Luminescence Cell-Based Dose Response HTS to Identify Activators of Luciferase Translation or Activity in H4 […] Cells. [Related pubchem assays: 1829 (Project Summary), 1814 (Primary HTS)]; format: functional
[3] = A Cell Based Secondary Assay To Explore Cytotoxicity of Compounds that Sensitize Mycobacterium Tuberculosis to Beta-Lactam Antibiotics.; format: functional
H4 = test: Luminescence Cell-Based Dose Response HTS to Identify Activators of 5'UTR Stem-Loop Driven Prion Protein mRNA Translation in H4 Neuroglioblastoma Cells. [Related pubchem assays: 1829 (Project Summary), 1814 (Primary HTS)]; format: functional; settings: Homo sapiens
Cytochrome P450 2C19 = Cytochrome P450 2C19 (Homo sapiens, UniProt P33261); test: Cytochrome panel assay with activity outcomes. Panel member name: p450-cyp2c19 Compounds with AC50 equal or less than 10 uM are considered active; format: functional; settings: read-out: AC50
Cytochrome P450 1A2 = target: T1, Cytochrome P450 1A2 (Homo sapiens, UniProt P05177);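 further: PubChem cytochrome P450 panel assay, CYP1A2 panel member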
T1 sequence (P05177 whole entry): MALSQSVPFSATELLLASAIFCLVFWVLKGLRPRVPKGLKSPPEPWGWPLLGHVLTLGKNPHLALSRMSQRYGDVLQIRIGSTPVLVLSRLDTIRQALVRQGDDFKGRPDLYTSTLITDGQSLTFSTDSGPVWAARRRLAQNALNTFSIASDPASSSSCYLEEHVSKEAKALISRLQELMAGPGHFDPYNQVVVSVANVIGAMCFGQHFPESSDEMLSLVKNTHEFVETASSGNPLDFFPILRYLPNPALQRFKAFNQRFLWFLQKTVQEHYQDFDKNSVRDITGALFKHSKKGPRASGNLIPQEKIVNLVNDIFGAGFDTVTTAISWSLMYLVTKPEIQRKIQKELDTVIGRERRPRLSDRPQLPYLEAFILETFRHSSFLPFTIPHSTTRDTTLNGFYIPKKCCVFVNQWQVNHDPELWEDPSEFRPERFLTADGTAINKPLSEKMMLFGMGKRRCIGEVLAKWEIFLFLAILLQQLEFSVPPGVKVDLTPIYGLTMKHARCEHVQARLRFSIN

[4] = target: T2, Tyrosine-protein phosphatase non-receptor type 7 (Homo sapiens, UniProt P35236); format: functional
T2 sequence (P35236 whole entry): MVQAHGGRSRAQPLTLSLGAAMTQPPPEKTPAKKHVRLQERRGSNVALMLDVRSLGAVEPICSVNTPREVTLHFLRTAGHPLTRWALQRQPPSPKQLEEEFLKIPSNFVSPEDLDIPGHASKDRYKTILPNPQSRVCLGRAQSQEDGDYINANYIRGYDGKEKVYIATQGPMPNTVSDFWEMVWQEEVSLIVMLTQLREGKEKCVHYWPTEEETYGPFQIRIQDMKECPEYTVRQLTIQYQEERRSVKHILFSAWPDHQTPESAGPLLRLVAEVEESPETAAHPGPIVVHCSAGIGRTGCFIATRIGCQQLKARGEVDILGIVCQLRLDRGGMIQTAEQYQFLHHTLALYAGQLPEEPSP

[5] = target: Glyceraldehyde-3-phosphate dehydrogenase (Homo sapiens, UniProt P04406)
[6] = target: T3, Dual specificity protein phosphatase 6 (Rattus norvegicus, UniProt Q64346)
T3 sequence (Q64346 whole entry): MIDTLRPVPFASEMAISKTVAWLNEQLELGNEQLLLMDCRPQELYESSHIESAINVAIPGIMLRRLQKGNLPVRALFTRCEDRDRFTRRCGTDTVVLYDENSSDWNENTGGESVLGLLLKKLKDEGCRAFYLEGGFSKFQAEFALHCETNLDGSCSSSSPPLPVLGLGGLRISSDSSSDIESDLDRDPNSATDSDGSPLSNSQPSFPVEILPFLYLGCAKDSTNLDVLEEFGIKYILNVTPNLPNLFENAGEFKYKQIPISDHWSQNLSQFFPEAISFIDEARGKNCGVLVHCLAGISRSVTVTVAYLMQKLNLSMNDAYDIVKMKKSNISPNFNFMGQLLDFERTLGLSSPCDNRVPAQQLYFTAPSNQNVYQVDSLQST

[7] = target: T3, Dual specificity protein phosphatase 6; format: functional
[8] = target: Acyl-homoserine lactone acylase PvdQ (Pseudomonas aeruginosa (strain LESB58), UniProt Q9I194); test: PvdQ acylase enzyme activity blockers – biochemical, fluorescence, plate reader and imaging, cherry-picks, dose response (AID 493231)
Acyl-homoserine lactone acylase PvdQ, sequence (Q9I194 24-193 limits assumed): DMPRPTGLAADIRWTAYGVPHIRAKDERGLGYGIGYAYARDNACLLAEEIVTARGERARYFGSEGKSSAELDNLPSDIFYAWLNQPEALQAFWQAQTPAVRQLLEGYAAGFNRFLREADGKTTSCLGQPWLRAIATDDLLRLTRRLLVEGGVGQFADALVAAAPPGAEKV
Acyl-homoserine lactone acylase PvdQ, sequence (Q9I194 217-762 limits assumed): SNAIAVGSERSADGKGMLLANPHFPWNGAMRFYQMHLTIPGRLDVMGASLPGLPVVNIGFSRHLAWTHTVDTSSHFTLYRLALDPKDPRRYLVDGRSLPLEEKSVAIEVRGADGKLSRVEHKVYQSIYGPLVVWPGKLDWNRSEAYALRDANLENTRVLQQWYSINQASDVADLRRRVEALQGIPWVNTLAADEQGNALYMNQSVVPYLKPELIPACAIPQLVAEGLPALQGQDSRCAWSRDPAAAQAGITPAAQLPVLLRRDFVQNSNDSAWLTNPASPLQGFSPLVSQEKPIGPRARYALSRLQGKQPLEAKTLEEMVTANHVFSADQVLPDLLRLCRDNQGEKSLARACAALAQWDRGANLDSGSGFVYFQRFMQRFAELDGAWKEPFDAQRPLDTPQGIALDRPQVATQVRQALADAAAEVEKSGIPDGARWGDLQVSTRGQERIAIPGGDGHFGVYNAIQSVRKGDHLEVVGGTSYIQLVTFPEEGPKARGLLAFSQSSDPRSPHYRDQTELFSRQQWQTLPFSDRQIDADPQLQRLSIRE

Aspartyl aminopeptidase = Aspartyl aminopeptidase (Plasmodium falciparum 3D7, UniProt Q8I2J3)
Aspartyl aminopeptidase, sequence (Q8I2J3 whole entry): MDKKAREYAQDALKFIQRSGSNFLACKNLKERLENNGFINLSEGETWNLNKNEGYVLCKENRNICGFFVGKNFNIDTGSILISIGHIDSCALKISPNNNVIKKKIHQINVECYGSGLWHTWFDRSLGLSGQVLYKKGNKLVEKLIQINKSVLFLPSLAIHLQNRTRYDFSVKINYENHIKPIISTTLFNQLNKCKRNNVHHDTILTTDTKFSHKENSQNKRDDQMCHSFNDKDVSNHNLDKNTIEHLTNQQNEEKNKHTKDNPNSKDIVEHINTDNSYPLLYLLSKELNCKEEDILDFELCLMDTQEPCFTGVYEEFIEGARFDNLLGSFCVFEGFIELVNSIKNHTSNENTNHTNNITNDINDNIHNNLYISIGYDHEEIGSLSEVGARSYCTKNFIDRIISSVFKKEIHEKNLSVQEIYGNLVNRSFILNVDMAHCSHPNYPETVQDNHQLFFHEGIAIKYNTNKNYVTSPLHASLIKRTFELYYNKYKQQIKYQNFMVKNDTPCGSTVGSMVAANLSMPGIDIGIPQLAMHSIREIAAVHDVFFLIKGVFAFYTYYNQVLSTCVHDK

Procathepsin L = Procathepsin L (Homo sapiens, UniProt P07711)
Procathepsin L, sequence (P07711 whole entry): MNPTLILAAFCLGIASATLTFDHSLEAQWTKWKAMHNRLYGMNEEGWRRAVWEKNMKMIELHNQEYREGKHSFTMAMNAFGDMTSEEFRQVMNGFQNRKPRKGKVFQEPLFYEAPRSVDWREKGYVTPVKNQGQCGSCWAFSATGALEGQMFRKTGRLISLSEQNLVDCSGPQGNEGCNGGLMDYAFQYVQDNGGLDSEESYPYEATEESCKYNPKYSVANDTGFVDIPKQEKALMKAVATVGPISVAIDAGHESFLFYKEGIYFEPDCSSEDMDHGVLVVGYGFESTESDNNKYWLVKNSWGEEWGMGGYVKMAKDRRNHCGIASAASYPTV

[9] = target: Eukaryotic translation initiation factor 4E (Mus musculus, UniProt P63073); test: blockers of eIF4G binding by eIF4E – biochemical, TR-FRET, dose response (AID 855); format: functional;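 further: potency for disrupting eIF4E binding to eIF4GI seen as loss of FRET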
Leucine aminopeptidase = target: T4, Leucine aminopeptidase (Plasmodium falciparum 3D7, UniProt Q8IL11); test: P. falciparum M17LAP inhibitors, primary screen, biochemical, fluorogenic H-Leu-NHMec substrate, 1536-well (AID 1619); format: functional
T4 sequence (Q8IL11 whole entry): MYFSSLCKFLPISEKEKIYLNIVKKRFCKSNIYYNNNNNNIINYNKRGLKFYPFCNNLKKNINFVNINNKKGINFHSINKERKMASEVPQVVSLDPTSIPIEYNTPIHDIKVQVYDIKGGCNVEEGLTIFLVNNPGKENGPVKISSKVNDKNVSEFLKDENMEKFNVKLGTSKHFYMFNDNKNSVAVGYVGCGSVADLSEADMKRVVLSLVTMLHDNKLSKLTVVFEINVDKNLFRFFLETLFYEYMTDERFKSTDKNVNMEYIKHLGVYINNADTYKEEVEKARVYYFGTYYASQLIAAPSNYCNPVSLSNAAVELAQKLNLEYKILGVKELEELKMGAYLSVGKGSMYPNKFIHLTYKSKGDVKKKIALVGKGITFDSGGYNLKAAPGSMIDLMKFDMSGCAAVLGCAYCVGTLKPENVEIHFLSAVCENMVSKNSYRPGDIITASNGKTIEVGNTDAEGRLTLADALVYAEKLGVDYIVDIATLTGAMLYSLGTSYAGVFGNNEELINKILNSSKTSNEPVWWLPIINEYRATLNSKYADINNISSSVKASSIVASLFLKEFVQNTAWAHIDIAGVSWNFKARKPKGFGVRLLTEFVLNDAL

Estrogen receptor beta = Estrogen receptor beta (Homo sapiens, UniProt Q92731); test: blockers of SRC-3 recruitment to ERβ – biochemical, ELISA, streptavidin-HRP readout, orthogonal assay, confirmation (AID 1060)
[10] = target: Induced myeloid leukemia cell differentiation protein Mcl-1 (Homo sapiens, UniProt Q07820); format: functional
ORF 73 = ORF 73 (Human herpesvirus 8, UniProt O40947); test: KSHV LANA DNA-binding disruption – biochemical, fluorescence polarization, cherry-picked samples, dose response (AID 504725); design: species or system Human gammaherpesvirus 8;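 further: fluorescence polarization of a labeled DNA duplex reporting LANA DNA binding; potency is for inhibitors that block LANA binding to the DNA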
SUMO-activating enzyme [11] = target: T5, SUMO-activating enzyme (Homo sapiens, UniProt Q9UBT2); test: blockers of UBC9-mediated SUMO conjugation – biochemical, AlphaScreen, SUMOylation inhibitor project, confirmation (AID 2018); format: functional
T5 sequence (Q9UBE0 whole entry): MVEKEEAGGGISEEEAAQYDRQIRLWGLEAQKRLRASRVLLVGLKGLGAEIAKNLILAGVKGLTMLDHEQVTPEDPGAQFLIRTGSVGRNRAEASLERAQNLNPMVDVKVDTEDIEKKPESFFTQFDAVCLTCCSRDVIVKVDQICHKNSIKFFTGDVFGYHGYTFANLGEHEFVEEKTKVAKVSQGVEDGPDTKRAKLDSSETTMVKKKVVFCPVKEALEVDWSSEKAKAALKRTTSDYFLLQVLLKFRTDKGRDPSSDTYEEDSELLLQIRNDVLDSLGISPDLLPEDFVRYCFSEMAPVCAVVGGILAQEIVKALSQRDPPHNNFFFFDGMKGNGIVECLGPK
T5 sequence (Q9UBT2 whole entry): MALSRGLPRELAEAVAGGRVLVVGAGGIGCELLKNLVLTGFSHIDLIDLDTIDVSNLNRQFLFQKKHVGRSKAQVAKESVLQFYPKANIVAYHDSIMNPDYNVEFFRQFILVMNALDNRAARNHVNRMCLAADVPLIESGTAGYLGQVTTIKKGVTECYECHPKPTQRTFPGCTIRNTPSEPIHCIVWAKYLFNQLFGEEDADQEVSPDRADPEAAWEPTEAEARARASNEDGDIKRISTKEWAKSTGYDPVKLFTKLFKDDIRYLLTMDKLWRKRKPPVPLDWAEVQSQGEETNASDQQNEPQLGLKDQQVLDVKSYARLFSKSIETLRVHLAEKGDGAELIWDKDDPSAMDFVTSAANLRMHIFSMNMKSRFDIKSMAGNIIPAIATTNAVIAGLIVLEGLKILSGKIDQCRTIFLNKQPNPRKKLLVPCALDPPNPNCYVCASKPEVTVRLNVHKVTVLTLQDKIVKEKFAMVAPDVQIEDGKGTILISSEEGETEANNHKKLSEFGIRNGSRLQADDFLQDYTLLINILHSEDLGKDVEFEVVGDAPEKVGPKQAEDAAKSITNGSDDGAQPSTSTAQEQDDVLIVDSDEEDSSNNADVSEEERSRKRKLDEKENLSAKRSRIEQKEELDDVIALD

Large T antigen = Large T antigen (Simian virus 40, UniProt P03070); format: functional, Betapolyomavirus macacae;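 further: Confirmatory-stage PubChem screen for compounds that inhibit SV40 T antigen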
Large T antigen, sequence (P03070 whole entry): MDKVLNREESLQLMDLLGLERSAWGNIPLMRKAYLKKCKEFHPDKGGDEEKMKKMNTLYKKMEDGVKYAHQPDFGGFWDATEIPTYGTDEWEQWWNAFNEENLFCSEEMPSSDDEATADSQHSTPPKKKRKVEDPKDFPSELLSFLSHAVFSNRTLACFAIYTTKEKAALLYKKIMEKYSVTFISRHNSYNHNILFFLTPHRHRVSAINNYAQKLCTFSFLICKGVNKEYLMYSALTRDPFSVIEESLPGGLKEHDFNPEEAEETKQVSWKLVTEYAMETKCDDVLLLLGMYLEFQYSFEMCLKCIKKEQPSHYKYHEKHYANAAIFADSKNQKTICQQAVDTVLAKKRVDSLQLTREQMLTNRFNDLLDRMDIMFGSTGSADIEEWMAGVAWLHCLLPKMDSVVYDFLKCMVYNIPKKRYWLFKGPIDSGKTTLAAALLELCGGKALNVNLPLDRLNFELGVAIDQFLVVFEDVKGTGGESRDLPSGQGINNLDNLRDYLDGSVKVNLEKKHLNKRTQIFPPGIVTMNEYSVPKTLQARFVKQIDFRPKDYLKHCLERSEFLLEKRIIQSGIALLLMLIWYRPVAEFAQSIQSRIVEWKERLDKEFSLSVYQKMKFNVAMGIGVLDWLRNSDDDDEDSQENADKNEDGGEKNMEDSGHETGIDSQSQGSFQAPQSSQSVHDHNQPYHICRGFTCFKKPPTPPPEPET

SUMO-activating enzyme [12] = target: T5, SUMO-activating enzyme; test: blockers of SAE1/SAE2–UBC9 SUMO transfer – biochemical, HTRF, uHTS, primary screen (AID 2006); format: protein-complex assay
[13] = viability loss in THP-1 monocytes – THP-1 cells, cytotoxicity control for Vif-APOBEC3G degradation inhibitor project, dose response (AID 1117359); format: functional; settings: THP-1
[14] = target: T6, Heat shock factor protein 1 (Mus musculus, UniProt P38532); test: decrease of HSF1-responsive luciferase luminescence – cell-based, NIH3T3, dose retest, confirmation (AID 2382); format: functional;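 further: NIH3T3 fibroblasts with HSF1-driven luciferase reporter stressed by proteasome inhibitor MG132; luminescence from HSF1-driven luciferase expression after 8 hours of MG132 stress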
T6 sequence (P38532 whole entry): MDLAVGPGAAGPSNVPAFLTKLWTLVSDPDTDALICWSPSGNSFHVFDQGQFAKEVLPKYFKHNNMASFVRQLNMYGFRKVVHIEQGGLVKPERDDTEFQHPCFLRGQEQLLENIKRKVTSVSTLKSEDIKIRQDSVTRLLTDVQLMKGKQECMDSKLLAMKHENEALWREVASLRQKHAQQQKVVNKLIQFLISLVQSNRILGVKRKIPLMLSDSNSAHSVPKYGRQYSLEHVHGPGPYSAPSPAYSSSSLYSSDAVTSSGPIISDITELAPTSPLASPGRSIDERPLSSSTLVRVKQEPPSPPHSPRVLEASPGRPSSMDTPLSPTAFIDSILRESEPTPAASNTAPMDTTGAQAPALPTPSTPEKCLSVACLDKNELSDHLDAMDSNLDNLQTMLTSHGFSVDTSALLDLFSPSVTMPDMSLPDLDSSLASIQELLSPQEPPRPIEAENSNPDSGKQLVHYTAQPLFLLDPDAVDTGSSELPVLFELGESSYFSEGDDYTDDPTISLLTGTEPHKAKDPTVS

X-box-binding protein 1 = X-box-binding protein 1 (Homo sapiens, UniProt P17861); format: functional, Cricetulus griseus;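 further: confirmatory dose-response counter-screen serving a CHOP assay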
X-box-binding protein 1, sequence (P17861 whole entry): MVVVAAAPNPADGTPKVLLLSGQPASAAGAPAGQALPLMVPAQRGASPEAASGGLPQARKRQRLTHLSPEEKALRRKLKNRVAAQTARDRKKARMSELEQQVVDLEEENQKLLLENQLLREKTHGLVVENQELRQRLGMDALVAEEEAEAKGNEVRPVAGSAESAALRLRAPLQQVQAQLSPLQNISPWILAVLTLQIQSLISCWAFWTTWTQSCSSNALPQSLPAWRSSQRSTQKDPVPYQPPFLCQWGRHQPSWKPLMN

[15] = tested on: Streptococcus sp. 'group A'; test: Streptococcus pyogenes SK(-)GAS viability under kanamycin – luminescence, BacTiterGlo, confirmation, counter-screen for streptokinase expression inhibitor project, dose response (AID 1900); format: functional, organism-based
Streptokinase A = target: T7, Streptokinase A (Streptococcus pyogenes serotype M1, UniProt P10520); test: viability-normalized secreted streptokinase activity reduction – plasminogen activation absorbance, OD405, dose response (AID 1914); format: functional, Streptococcus pyogenes M1 GAS;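 further: secreted streptokinase activity via plasminogen activation per viability signal from cell pellet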
T7 sequence (P10520 whole entry): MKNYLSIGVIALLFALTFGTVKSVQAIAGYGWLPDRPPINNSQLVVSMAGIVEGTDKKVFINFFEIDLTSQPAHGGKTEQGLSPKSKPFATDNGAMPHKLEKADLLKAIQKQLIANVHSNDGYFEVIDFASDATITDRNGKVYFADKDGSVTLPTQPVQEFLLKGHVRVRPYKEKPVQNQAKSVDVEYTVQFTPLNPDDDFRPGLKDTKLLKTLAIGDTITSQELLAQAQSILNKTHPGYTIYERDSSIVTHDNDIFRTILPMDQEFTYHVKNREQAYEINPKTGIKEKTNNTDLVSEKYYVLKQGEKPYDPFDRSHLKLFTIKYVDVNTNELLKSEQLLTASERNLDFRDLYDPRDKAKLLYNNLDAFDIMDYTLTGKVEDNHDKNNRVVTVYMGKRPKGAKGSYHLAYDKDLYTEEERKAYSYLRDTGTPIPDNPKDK

Streptococcus = test: GAS UMAA2166 growth inhibition – luminescence, BacTiterGlo, counter-screen for streptokinase expression inhibitor project, dose response (AID 1915); format: functional, organism-based;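 further: potency for reduction of bacterial viability or growth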
Mu-type opioid receptor = Mu-type opioid receptor (Homo sapiens, UniProt P35372); format: functional, cell-based;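 further: U2OS cells with beta-arrestin recruitment to OPRM1 by beta-gal complementation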
Mu-type opioid receptor, sequence (P35372 whole entry): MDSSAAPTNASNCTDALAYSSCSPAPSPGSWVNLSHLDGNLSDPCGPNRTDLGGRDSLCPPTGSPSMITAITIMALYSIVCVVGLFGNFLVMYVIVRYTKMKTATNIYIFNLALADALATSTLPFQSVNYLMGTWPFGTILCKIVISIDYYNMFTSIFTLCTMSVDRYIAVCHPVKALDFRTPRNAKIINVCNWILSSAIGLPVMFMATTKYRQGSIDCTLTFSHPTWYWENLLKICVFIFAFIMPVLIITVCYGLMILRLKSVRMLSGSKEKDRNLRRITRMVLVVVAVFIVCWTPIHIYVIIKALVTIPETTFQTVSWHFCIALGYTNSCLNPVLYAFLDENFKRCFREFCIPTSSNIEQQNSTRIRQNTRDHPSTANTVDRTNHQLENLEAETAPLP

[16] = target: 5-hydroxytryptamine receptor 2A (Mus musculus, UniProt P35363); format: functional, cell-based;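 further: CHO-K1 cells with tagged receptor and beta-arrestin; agonist potency measured as compound-induced activation of the receptor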
[17] = target: G-protein coupled receptor 55 (Homo sapiens, UniProt Q9Y2T6); test: inhibition of LPI-stimulated GPR55 beta-arrestin translocation – imaging, U2OS, beta-arrestin-GFP, LPI agonist, primary screen (AID 2013); format: functional;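 further: antagonist potency measured as reduced agonist-driven arrestin aggregation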
G-protein coupled receptor 55, sequence (Q9Y2T6 whole entry): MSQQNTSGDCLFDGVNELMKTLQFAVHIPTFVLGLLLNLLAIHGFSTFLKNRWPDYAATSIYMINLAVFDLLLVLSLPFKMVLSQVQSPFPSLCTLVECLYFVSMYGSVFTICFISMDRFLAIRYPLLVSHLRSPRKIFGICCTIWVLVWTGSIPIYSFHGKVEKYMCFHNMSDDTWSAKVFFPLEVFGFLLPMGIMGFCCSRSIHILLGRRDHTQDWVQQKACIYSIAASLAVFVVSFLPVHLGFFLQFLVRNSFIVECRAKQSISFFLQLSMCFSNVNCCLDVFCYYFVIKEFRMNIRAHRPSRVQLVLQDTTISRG

[18] = target: DNA dC->dU-editing enzyme APOBEC-3A (Homo sapiens, UniProt P31941); test: Dose Response confirmation of small molecule APOBEC3A DNA Deaminase Inhibitors via a fluorescence-based single-stranded DNA deaminase assay. [Related pubchem assays (depositor defined):AID493011, AID493024]; format: functional
DNA dC->dU-editing enzyme APOBEC-3A, sequence (P31941 whole entry): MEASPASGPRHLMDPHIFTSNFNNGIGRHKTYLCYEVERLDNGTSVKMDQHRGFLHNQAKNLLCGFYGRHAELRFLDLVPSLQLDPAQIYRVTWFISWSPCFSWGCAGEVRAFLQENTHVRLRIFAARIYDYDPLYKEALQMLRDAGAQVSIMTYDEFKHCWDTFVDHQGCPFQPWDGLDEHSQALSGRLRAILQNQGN

[19] = target: DNA dC->dU-editing enzyme APOBEC-3G (Homo sapiens, UniProt Q9HC16); format: functional;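 further: Dose-response counterscreen measuring inhibition of APOBEC3G DNA deaminase activity, run while confirming APOBEC3A inhibitors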
DNA dC->dU-editing enzyme APOBEC-3G, sequence (Q9HC16 whole entry): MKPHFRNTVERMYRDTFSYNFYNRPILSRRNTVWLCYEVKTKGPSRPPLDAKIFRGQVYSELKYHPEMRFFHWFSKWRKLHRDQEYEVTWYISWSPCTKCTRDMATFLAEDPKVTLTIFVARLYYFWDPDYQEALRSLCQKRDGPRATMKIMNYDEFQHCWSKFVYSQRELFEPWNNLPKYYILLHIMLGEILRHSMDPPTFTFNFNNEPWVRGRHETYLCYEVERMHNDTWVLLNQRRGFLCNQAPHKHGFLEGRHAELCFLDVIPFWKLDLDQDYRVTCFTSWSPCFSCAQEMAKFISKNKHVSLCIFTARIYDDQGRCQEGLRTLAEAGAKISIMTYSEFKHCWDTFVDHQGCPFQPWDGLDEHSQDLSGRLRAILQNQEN

## O=C(Oc1oc(-c2ccco2)nc1/C=N/c1ccc(Cl)cc1)c1ccco1
[1]
  EC50: 14.3 µM (active)
[2]
  EC50: 21.7 µM (active)
[3]
  CC50: > 40 µM (active)
H4
  EC50: 31.7 µM (active)
Cytochrome P450 2C19
  AC50: 14.1 µM (inconclusive)
Cytochrome P450 1A2
  AC50: 15.8 µM (inconclusive)

## Cc1ccc2c(c1)NC(C(=O)O)NS2(=O)=O (configuration not stated)
[4]
  IC50: 3.35 µM (active)
[5]
  IC50: > 100 µM (not active)
[6]
  IC50: 52.5 µM (active)
[7]
  IC50: 56.9 µM (active)

## N#Cc1cccnc1Nc1ccc(Cl)cc1
[8]
  AC50: 14.2 µM (active)

## O=C(Nc1ccc(Br)cc1Cl)Nn1cnnc1
Aspartyl aminopeptidase
  IC50: 0.711 µM (active)
Procathepsin L
  IC50: > 59.6 µM (not active)

## C=CCn1c(N)cc(=O)nc1SCC(=O)Nc1cccc2ccccc12
[9]
  IC50: > 64 µM (inactive)

## O=C(O)CSc1nnc[nH]1
Aspartyl aminopeptidase
  IC50: 0.202 µM (active)
Procathepsin L
  IC50: > 59.6 µM (not active)

## Cc1cccc(C)c1NC(=O)CSc1nnc(-c2ccco2)c(-c2ccco2)n1
Leucine aminopeptidase
  IC50: 18.9 µM (active)
Estrogen receptor beta
  IC50: 2 µM (not active)
[10]
  IC50: 4.92 µM (active)
ORF 73
  AC50: 160 µM (active)

## O=C1N=C(Nc2ccc(O)cc2)S/C1=C\C=C\c1ccco1
SUMO-activating enzyme [11]
  IC50: 2.59 µM (active)
Large T antigen
  IC50: 31.5 µM (active)
SUMO-activating enzyme [12]
  IC50: 30.8 µM (active)
[13]
  CC50: 2.84 µM (active)

## Cc1cc(C)c2c(c1)/C(=N/NS(=O)(=O)c1ccc(Br)cc1)CCC2
[14]
  EC50: > 195 µM (not active)
X-box-binding protein 1
  Absolute IC50 (XBP1): 10 µM

## Cc1ccc(Nc2nc(N)nc(CN3CCN(c4ccccc4)CC3)n2)cc1Cl
[15]
  EC50: 8.53 µM (active)
Streptokinase A
  EC50: > 150 µM (not active)
Streptococcus
  EC50: 111 µM (active)
X-box-binding protein 1
  Absolute IC50 (XBP1): 10 µM
Mu-type opioid receptor
  EC50: 92.5 µM (inactive)
[16]
  EC50: 76.1 µM (inactive)

## CCOC(=O)c1c(-c2ccccc2)oc2ccc(O)c(CN3CCN(C)CC3)c12
[17]
  IC50: 6.85 µM (active)

## CCCOc1ccc(C(=O)CCC(=O)OCC(=O)Nc2cccc(S(N)(=O)=O)c2)cc1
[8]
  AC50: > 100 µM (inactive)

## CSCC[C@H](NC(=O)c1ccc(Cl)c(S(=O)(=O)N2CCCC2)c1)c1nc2ccccc2[nH]1
[18]
  IC50: 5.06 µM (active)
[19]
  IC50: 4.93 µM (active)

## COc1cc(C2c3sc(=O)[nH]c3SC3C4CCC(C4)C23)ccc1O (configuration not stated)
[17]
  IC50: 0.672 µM (active)
